The source of these data is ChEMBL document CHEMBL1201862, “PubChem BioAssay data set” (2004).

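Assay format: 96-well plates, 48-hour exposure. The concentration for 50% growth inhibition is given as GI50.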 Activity calls are given as the source filed them. No stated cut-off is given here; in the data, active = GI50 up to about 1.1 µM and inactive = higher.

Some test systems named below: A498; BT-549; CCRF-CEM; COLO 205; HOP-62; LOX IMVI; MDA-MB-231; MDA-MB-435; NCI-H226; NCI/ADR-RES; OVCAR-4; OVCAR-5; OVCAR-8; RPMI-8226; SR; TK-10; UACC-257; UO-31; SNB-75.
What all share (assay): NCI-60 cell line screen, 48 h

For `CCOC(=O)/C=C(/C)Nc1nc2c(c(C(=O)OC)c1C#N)CCCC2`, the GI50 with A498, with BT-549, with CCRF-CEM, in the assay on COLO 205, in the assay on HOP-62 and in the assay with LOX IMVI was > 100 µM (inactive) throughout. Besides, the GI50 in the assay on MDA-MB-231 was > 100 µM (inactive); with MDA-MB-435 it was > 100 µM (inactive); in the assay with NCI-H226, > 100 µM (inactive); in the assay on NCI/ADR-RES it was > 100 µM (inactive); in the assay on OVCAR-4 it was 44.7 µM (inactive); with OVCAR-5, > 100 µM (inactive). Further, the GI50 in the assay with OVCAR-8, with RPMI-8226, with SR, in the assay with TK-10, in the assay with UACC-257 and in the assay with UO-31 was > 100 µM (inactive) throughout.
In the case of `CC(C)OC(=O)C1=C2c3ncccc3C(=O)N2[C@@H](Cl)[C@H](Cl)[C@H]1Cl`, the GI50 with A498 is > 100 µM (inactive); with BT-549 it was 36.9 µM (inactive); in the assay with COLO 205, 44 µM (inactive); in the assay on HOP-62, > 100 µM (inactive); in the assay with LOX IMVI it was 68.9 µM (inactive); with MDA-MB-231, > 100 µM (inactive). In addition, the GI50 in the assay with MDA-MB-435 is 81.1 µM (inactive); with NCI-H226, > 100 µM (inactive); in the assay on NCI/ADR-RES, > 100 µM (inactive); with OVCAR-4 it was > 100 µM (inactive); in the assay with OVCAR-5, > 100 µM (inactive); in the assay with OVCAR-8 it was 31.7 µM (inactive). For the same molecule, the GI50 in the assay with RPMI-8226 is 21.8 µM (inactive); in the assay on SR, 26.5 µM (inactive); in the assay with TK-10, > 100 µM (inactive); with UACC-257, 34 µM (inactive); with UO-31 it was > 100 µM (inactive).
Turning to `N#CC(/N=N/c1ccccc1C(=O)O)C(N)=O` (stereo unspecified), the GI50 in the assay on BT-549 is > 100 µM (inactive); in the assay on CCRF-CEM it was > 100 µM (inactive); in the assay on HOP-62 it was > 100 µM (inactive); in the assay with MDA-MB-231, > 100 µM (inactive); in the assay with MDA-MB-435, > 100 µM (inactive); in the assay on NCI-H226, 82.8 µM (inactive). The GI50 with NCI/ADR-RES is 39.8 µM (inactive); in the assay with OVCAR-4, > 100 µM (inactive); in the assay on OVCAR-5 it was > 100 µM (inactive); in the assay on RPMI-8226, > 100 µM (inactive); with SNB-75 it was 60.3 µM (inactive); with SR, > 100 µM (inactive). In addition, the GI50 with TK-10, in the assay with UACC-257 and in the assay on UO-31 was > 100 µM (inactive) throughout.
Turning to `Nc1ccc(-c2nc3ccc(F)cc3s2)cc1I`, the GI50 in the assay with A498 was > 100 µM (inactive); in the assay on BT-549 it was > 100 µM (inactive); with CCRF-CEM, > 21.2 µM (inactive); in the assay with COLO 205 it was > 100 µM (inactive); in the assay on HOP-62, 47.1 µM (inactive); in the assay with LOX IMVI, > 100 µM (inactive). Moreover, the GI50 in the assay on MDA-MB-231 was > 54.2 µM (inactive); in the assay on MDA-MB-435, > 100 µM (inactive); in the assay on NCI/ADR-RES it was > 31 µM (inactive); in the assay on OVCAR-5, 0.0515 µM (active); in the assay with OVCAR-8, > 79.4 µM (inactive); in the assay on RPMI-8226, > 100 µM (inactive). Further, the GI50 is 30.8 µM (inactive) in the assay with SNB-75; > 76.2 µM (inactive) with SR; < 0.01 µM (active) with TK-10; > 100 µM (inactive) with UACC-257; > 100 µM (inactive) in the assay on UO-31.
In the case of `CNC1NC(=O)c2ccccc2N1Cc1ccc(F)cc1` (stereo unspecified), the GI50 in the assay on A498, with BT-549, in the assay with CCRF-CEM, in the assay on COLO 205, in the assay on HOP-62 and in the assay on LOX IMVI was > 100 µM (inactive) throughout. In addition, the GI50 in the assay on MDA-MB-231, with MDA-MB-435, in the assay with NCI-H226, with NCI/ADR-RES, in the assay with OVCAR-4 and with OVCAR-5 was > 100 µM (inactive) throughout. In addition, the GI50 with OVCAR-8 is > 100 µM (inactive); in the assay with RPMI-8226, > 100 µM (inactive); in the assay with SNB-75 it was > 100 µM (inactive); with TK-10 it was > 100 µM (inactive); in the assay on UACC-257, > 100 µM (inactive); in the assay with UO-31, 11.1 µM (inactive).
`CN(C)Cc1cc(O)c(O)c(CN(C)C)c1`: the GI50 is > 100 µM (inactive) with A498; 54 µM (inactive) with BT-549; 20.2 µM (inactive) in the assay with CCRF-CEM; 34.7 µM (inactive) in the assay on COLO 205; 37.2 µM (inactive) in the assay on HOP-62; 36 µM (inactive) in the assay on LOX IMVI. The GI50 is > 100 µM (inactive) in the assay on MDA-MB-231; > 100 µM (inactive) in the assay with MDA-MB-435; 43.3 µM (inactive) in the assay with NCI-H226; 19.3 µM (inactive) with NCI/ADR-RES; 42.5 µM (inactive) with OVCAR-4; 32.4 µM (inactive) in the assay on OVCAR-5. Moreover, the GI50 with OVCAR-8 is 35.2 µM (inactive); in the assay with RPMI-8226, 35.7 µM (inactive); in the assay on SNB-75 it was 56.6 µM (inactive); in the assay with TK-10, 37.5 µM (inactive); in the assay on UACC-257, 17.3 µM (inactive); in the assay on UO-31, 25.9 µM (inactive).
Take `CCOC(=O)/C(C#N)=C/Nc1c(C)n(C)n(-c2ccccc2)c1=O`: the GI50 in the assay on A498, with BT-549, in the assay with CCRF-CEM, in the assay on COLO 205, in the assay on LOX IMVI and with MDA-MB-231 was > 100 µM (inactive) each time. Moreover, the GI50 with MDA-MB-435 was > 100 µM (inactive); in the assay on NCI-H226, 43.4 µM (inactive); in the assay on NCI/ADR-RES, 47.6 µM (inactive); in the assay on OVCAR-4, > 100 µM (inactive); in the assay on OVCAR-5, > 100 µM (inactive); in the assay with OVCAR-8, > 100 µM (inactive). In addition, the GI50 with RPMI-8226, in the assay on SR, with TK-10, in the assay on UACC-257 and with UO-31 was > 100 µM (inactive) each time.
`C=C[C@H]1CN2CCc3c([nH]c4c([C@H]5CCCN5C)c(O)ccc34)[C@@H]2C[C@@H]1C[C@H]1c2[nH]c3ccccc3c2CCN1C` [STRYCHNOPENTAMINE]: the GI50 was 1.63 µM (inactive) with A498; 1.94 µM (inactive) in the assay on BT-549; 0.719 µM (active) in the assay with CCRF-CEM; 1.5 µM (inactive) in the assay on COLO 205; 1.55 µM (inactive) in the assay with HOP-62; 1.15 µM (inactive) in the assay on LOX IMVI. Moreover, the GI50 is 1.81 µM (inactive) in the assay with MDA-MB-231; 1.43 µM (inactive) in the assay on MDA-MB-435; 1.74 µM (inactive) with NCI/ADR-RES; 1.74 µM (inactive) in the assay on OVCAR-4; 1.72 µM (inactive) in the assay with OVCAR-5; 1.23 µM (inactive) with OVCAR-8. For the same molecule, the GI50 in the assay on RPMI-8226 was 0.653 µM (active); in the assay with SNB-75 it was 1.14 µM (inactive); with SR, 0.425 µM (active); in the assay with TK-10, 1.83 µM (inactive); with UACC-257, 1.83 µM (inactive); with UO-31, 1.71 µM (inactive).
`CC1CN=C(Nc2cccc(F)c2)S1` (stereo unspecified): the GI50 is > 100 µM (inactive) in the assay on BT-549; 91 µM (inactive) in the assay on CCRF-CEM; > 100 µM (inactive) in the assay on COLO 205; > 100 µM (inactive) in the assay with HOP-62; > 100 µM (inactive) in the assay on LOX IMVI; 3.99 µM (inactive) in the assay with MDA-MB-231. Moreover, the GI50 in the assay with MDA-MB-435, in the assay on NCI-H226, in the assay on NCI/ADR-RES, in the assay with OVCAR-4, in the assay on OVCAR-5 and with OVCAR-8 was > 100 µM (inactive) throughout. The GI50 with RPMI-8226 is > 100 µM (inactive); in the assay with SNB-75, > 100 µM (inactive); in the assay with SR, 7.87 µM (inactive); with TK-10, > 100 µM (inactive); in the assay on UACC-257, > 100 µM (inactive); in the assay with UO-31, > 100 µM (inactive).
As for `O=C(O)CSC1=NC(=O)C2(NN1)c1ccccc1-c1ccccc12`, the GI50 in the assay on BT-549, with CCRF-CEM, in the assay with COLO 205, in the assay with HOP-62, in the assay with LOX IMVI and in the assay with MDA-MB-231 was > 10 µM (inactive) each time. In addition, the GI50 with MDA-MB-435, in the assay on NCI-H226, with NCI/ADR-RES, in the assay on OVCAR-4, in the assay with OVCAR-8 and in the assay on RPMI-8226 was > 10 µM (inactive) throughout. In addition, the GI50 with SNB-75, in the assay on SR, in the assay on TK-10, in the assay on UACC-257 and in the assay on UO-31 was > 10 µM (inactive) in each case.
Turning to `Clc1ccc(NCc2nnc(CCCCCCCCc3nnc(CNc4ccc(Cl)cc4)o3)o2)cc1`, the GI50 in the assay with A498, in the assay on BT-549, with CCRF-CEM, in the assay with COLO 205, in the assay with HOP-62 and with LOX IMVI was > 100 µM (inactive) each time. Moreover, the GI50 with MDA-MB-231, in the assay with MDA-MB-435, in the assay on NCI/ADR-RES, in the assay with OVCAR-4, with OVCAR-5 and with OVCAR-8 was > 100 µM (inactive) throughout. The GI50 with RPMI-8226, in the assay with SNB-75, in the assay on SR, in the assay on TK-10, with UACC-257 and in the assay with UO-31 was > 100 µM (inactive) each time.
